Data from US20100247629A1, “Method for drug loading in liposomes” (Yissum Research Development Company of the Hebrew …, priority 2003, published 2010).

What was measured:
C-26 cells = assay: In vivo therapeutic activity, C-26 tumor survival; design: species or system mice; details: C-26 tumor i.p., 10 mg/kg i.v. five days after inoculation
Description: Untreated (control) mice died quickly with a median survival of 13 days (not shown).
In another study, mice were inoculated i.p. with C-26 cells (10^6 cells).

M109-R [1] = assay: In vitro uptake of doxorubicin into tumor cells; assay type: cell-based, mouse; details: 24 exposure
Procedure: (§1) There is a greater drug accumulation in cells treated with lipo-dox-AG than in those treated with lipo-dox-AS.
(§2) Cellular accumulation of doxorubicin was assayed by a method similar to that described in Chambers, S. K. et al., Cancer Res., 49:6275-6279 (1989). […] At the end of the incubation, the cells were rinsed three times with PBS and the drug was extracted from the cells with 1 mL acidified isopropanol (0.075 M HCl in 90% isopropanol), for 20 hours at 4° C. Doxorubicin concentration was determined spectrofluorometrically using an excitation wavelength of 470 nm and an emission wavelength of 590 nm. The fluorescence intensity emitted was translated into doxorubicin-equivalents based on a doxorubicin standard curve, after readings of untreated background cells were subtracted.

[2] = Solubility and precipitation of doxorubicin in ammonium salt solutions; assay type: physicochemical
Procedure: The higher release rate is a result of using glucuronate as the balancing anion. […] In addition, doxorubicin precipitates at less than 2 mM concentration in the presence of sulfate ions, while a much higher concentration of doxorubicin is required for precipitation to occur in the presence of glucuronate ions. Accordingly, when glucuronate is the balancing anion, more of the therapeutic agent is in a soluble form and therefore it is more available for release from the liposomes. Further, the permeability of glucuronate through the liposomal membranes is very low, possibly due to its low pKa, its bulkiness and/or polarity, making it very efficient for maintaining the ammonium ion gradient for loading of the therapeutic agents.

KB-V [3] = assay: In vitro cytotoxicity (growth inhibition, methylene blue); assay type: cell-based, human; details: KB-V (doxorubicin-resistant); continuous exposure 72 hours
Procedure: (§3) M109-R and KB-V cell lines are doxorubicin-resistant sublines of M109-S and KB, respectively. The cells were exposed continuously to the drug formulation for 72 hours following the experimental details described by Horowitz, et al., Biochimica et Biophysica Acta, 1109:203-209 (1992) and also in Example 2.
(§4) Cells for each line were exposed continuously to drug for 72 hours. Other experimental details were as described by Horowitz et al., Biochem Biophys Acta, 1109(2):203 (1992). Briefly, 5×10^3 cells from exponentially growing cultures in 200 μL aliquots were plated onto 96-well flat-bottom microtiter plates. […] For each 10-fold increase in drug concentration, six drug concentration points were tested. Each test was performed in triplicate wells and in two parallel plates. The cells were treated continuously for 72 hours. The cultures were fixed by the addition of 50 μL 2.5% glutaraldehyde to each well for 10 minutes. The plates were washed three times with de-ionized water, once with 0.1 M borate buffer (pH 8.5) and then stained for 60 minutes with 100 μL methylene blue (1% in 0.1 M buffer borate, pH 8.5) at room temperature. The plates were rinsed in five baths of de-ionized water to remove non-cell bound dye and were then dried. The dye was extracted with 200 μL 0.1 M HCl for 60 min at 37° C. and the optical density was determined using a microplate spectrophotometer.
(§5) The growth rate was calculated by dividing the doubling times of drug-treated cells with those of the control cells.

C26 = assay: as above; assay type: cell-based, human; details: continuous exposure 72 hours
Procedure: as §3, §4, §5

KB [4] = assay: as above; assay type: cell-based, human; details: continuous exposure 72 hours
Procedure: as §3, §4, §5

M109-R [5] = assay: as above; assay type: cell-based, mouse; details: M109-R (doxorubicin-resistant); continuous exposure 72 hours
Procedure: as §3
as §4, with “The plates were rinsed in five baths of de-ionized water to remove non-cell bound dye and were then dried.” left out
as §5

M109-S = assay: as above; assay type: cell-based, mouse; details: continuous exposure 72 hours
Procedure: as §3
as §4, with “The plates were rinsed in five baths of de-ionized water to remove non-cell bound dye and were then dried.” left out
as §5

KB-V [6] = assay: In vitro uptake of doxorubicin into tumor cells; assay type: cell-based, human
Procedure: as §1, §2

KB [7] = assay: In vitro uptake of doxorubicin into tumor cells; assay type: cell-based, human
Procedure: as §1, §2

COc1cccc2c1C(=O)c1c(O)c3c(c(O)c1C2=O)C[C@@](O)(C(=O)CO)C[C@@H]3O[C@H]1C[C@H](N)[C@H](O)[C@H](C)O1 [free doxorubicin, doxorubicin]
increase in mean survival time over control (C-26 cells): 4 days
mean survival time (C-26 cells): 17 days
Doxorubicin Uptake (M109-R [1]): 80 (3) ng DOX/10^6 cells
solubility in 250 mM ammonium glucuronate relative to 250 mM ammonium sulfate ([2]; 250 mM AG solution vs 250 mM AS solution): approximately 100 fold
concentration at which doxorubicin precipitates ([2]; in the presence of sulfate ions): less than 2 mM
IC50 (KB-V [3]): 690 nM
IC50 (C26): 960 nM
IC50 (KB [4]): 40 nM
IC50 (M109-R [5]): 2000 nM
IC50 (M109-S): 560 nM
Doxorubicin Uptake (KB-V [6]; 1 hr exposure): 311 (22) ng DOX/10^6 cells
Doxorubicin Uptake (KB-V [6]; 5 hr exposure): 931 (21) ng DOX/10^6 cells
Doxorubicin Uptake (KB [7]; 1 hr exposure): 426 (33) ng DOX/10^6 cells
Doxorubicin Uptake (KB [7]; 5 hr exposure): 937 (46) ng DOX/10^6 cells
Doxorubicin Uptake (KB [7]; 24 hr exposure): 840 (15) ng DOX/10^6 cells
